{"source": "patent US20040106545A1", "about": "“Compounds and methods for modulating cell adhesion” (priority 1996, published 2004)", "key": {"[1]": {"test_system": "Human saphenous vein vascular smooth muscle cells", "assay": "Vascular smooth muscle cell apoptosis at migrating wound edge, in situ end labeling", "assay_type": "cell-based", "conditions": "1 mg/mL, 24 hours after wounding, n=4, p<0.05", "experimental": "Human saphenous vein vascular smooth muscle cells were explanted from surplus segments of vein from patients undergoing coronary artery bypass surgery. Cells were maintained in Dulbecco's modified essential medium supplemented with […], 2 mmol/L L-glutamine and 10% fetal calf serum and were grown to confluence on glass coverslips. The cell layer was then subjected to scrape-wounding by drawing a fine cell scraper across the coverslip. Proliferation of the vascular smooth muscle cells was inhibited by addition of 2 mM hydroxyurea to the culture media. Vascular smooth muscle cells that are treated in this manner respond to the wounding of the confluent monolayer by migrating into the wound (Hammerle et al (1991) Vasa 20, 207-215). The percentage of apoptotic cells in the migrating edge (outermost 100 μm from the wound) was assessed by in situ end labeling at 24 hours after wounding (as in George et al (2001) Gene Therapy 8 668-676)."}, "[2]": {"test_system": "Madin Darby canine kidney (MDCK) cells", "assay_type": "cell-based", "conditions": "18 h"}}}
{"molecule": "CC(=O)N[C@H]1CSSC[C@@H](C(N)=O)NC(=O)[C@H](C(C)C)NC(=O)[C@H](C)NC(=O)[C@H](Cc2c[nH]cn2)NC1=O", "note": "[N—Ac—CHAVC—NH2, N-Ac-Cys-His-Ala-Val-Cys-NH2]", "values": [{"measurement": "increase in apoptosis at wound edge", "setting": "[1]", "value": "3±1", "unit": "fold"}, {"measurement": "EC50", "setting": "[2]", "value": 270, "unit": "µM"}]}
